Columns and labels:
Type in all cases: in vivo
[1] = test system: cucumber downy mildew (Pseudoperonospora cubensis (Berk. et Curt.) Rostov); test: Protective effect against cucumber downy mildew on potted plants; settings: grading 100-0 (100 no infection, 0 most serious infection), read-out: protectant activity against cucumber downy mildew
Procedure: (§1) Fungicidal activity of the compounds in the present invention against many kinds diseases were carried out. The procedure of fungicidal activity determination is as follows:
(§2) The fungicidal activity was tested in vivo manner on the potted plants. The test compounds of the present invention were dissolved in proper solvent (choosing the solvent according their dissolving ability to the compounds, the solvents could be acetone, methanol or N,N-dimethylformide, etc. The volume ratio between solvent and liquid sprayed was equal to or less than 0.05) and dilute with water contain 0.1% Tween 80 to given concentrations. Compounds of present invention was sprayed onto the leaves of seedling according to the designed concentration. Meanwhile, water was set as the blank control, three replicates were set for each treatment, the spore suspension were inoculated on the second day after treatment, then the plants were placed in an artificial climate chamber (temperature: day 25° C., night 20° C., relative humidity 95 to 100%). 24 hours later, the plants were moved to green house to cultivated. The plants which not need to control humidity was inoculated spore suspension in green house and cultivated in green house directly. The results were investigated after the plants were fully infected relative to the blank control (usually one week). The test resluts grading 100-0 refers to the <A Manual of Assessment Keys for Plant Diseases> which edited by American Phytopathological Society. “100” refer to no infection and “0” refer to the most serious infection
Protective effect against cucumber downy mildew (Pseudoperonospora cubensis (Berk. et Curt.) Rostov)
According the test method described above, parallel test were carried out between compounds 2, 4, 11, 13, 71 and 111 of present invention and the known compounds KC1, KC2, KC3, KC4, KC5 and KC6 (The compounds were self-made and the structure was confirmed by ^1H NMR consistent with the description of the procedures).

[2] = test system: corn rust (Puccinia sorghi Schw.); test: Protective effect against corn rust on potted plants; settings: grading 100-0
Procedure: as §1, §2
Protective Effect Against Corn Rust (Puccinia sorghi Schw.):
According the test method described above, parallel test were carried out between compound 13 of present invention and the known compound KC1.
According the test method described above, parallel test were carried out between compound 11 of present invention and the known compound KC2.
According the test method described above, parallel test were carried out between compound 71 of present invention and the known compounds KC5 and KC6.

[3] = test system: cucumber anthracnose (Colletotrichum orbiculare); test: Protective effect against cucumber anthracnose on potted plants; settings: 400 ppm, foliar spray
Procedure: as §1
The fungicidal activity was tested in vivo manner on the potted plants. The test compounds of the present invention were dissolved in proper solvent (choosing the solvent according their dissolving ability to the compounds, the solvents could be acetone, methanol or N,N-dimethylformide, etc. The volume ratio between solvent and liquid sprayed was equal to or less than 0.05) and dilute with water contain 0.1% Tween 80 to given concentrations. Compounds of present invention was sprayed onto the leaves of seedling according to the designed concentration. Meanwhile, water was set as the blank control, three replicates were set for each treatment, the spore suspension were inoculated on the second day after treatment, then the plants were placed in an artificial climate chamber (temperature: day 25° C., night 20° C., relative humidity 95 to 100%). 24 hours later, the plants were moved to green house to cultivated. The plants which not need to control humidity was inoculated spore suspension in green house and cultivated in green house directly. The results were investigated after the plants were fully infected relative to the blank control (usually one week). […]

For `Cc1nc(C)c(C(=O)Nc2cccc(OC(C)C)c2)s1` [KC5, reference compound], the pest or weed control at 400 ppm [1] was 0%.

`Cc1nn(C)cc1C(=O)Nc1cccc(OC(C)C)c1C` [KC3, reference compound] gave a pest or weed control at 400 ppm [1] of 0%.

`Cc1nn(C)c(Cl)c1C(=O)Nc1cccc(OC(C)C)c1C` [KC4, reference compound] gave a pest or weed control at 400 ppm [1] of 0%.

In the case of `CCCCC(C)Oc1cccc(NC(=O)c2c(C(F)F)nn(C)c2Cl)c1C` (stereo not shown) [Compound 11], the “protectant activity against corn rust” value ([2]; 0.39 ppm, table 4) is reported as 100, the “protectant activity against corn rust” value ([2]; 1.5625 ppm, table 4) is reported as 100 and the “protectant activity against corn rust” value ([2]; 6.25 ppm, table 4) is reported as 100. The pest or weed control at 400 ppm [1] was 85%.

Molecule `CCCC(C)Oc1cccc(NC(=O)c2sc(C(F)(F)F)nc2CC)c1C` (stereo not shown) [Compound 111] has a pest or weed control at 400 ppm [1] of 100%.

`CCCCC(C)Oc1cccc(NC(=O)c2cn(C)nc2C(C)C)c1C` (stereo not shown) [Compound 2] was tested, and the pest or weed control at 400 ppm [1] was 100%.

With `CCCCC(C)Oc1cccc(NC(=O)c2sc(C)nc2C(F)(F)F)c1C` (stereo not shown) [Compound 71] the “protectant activity against corn rust” value ([2]; 1.56 ppm, table 5) was 100, the “protectant activity against corn rust” value ([2]; 6.25 ppm, table 5) was 100 and the “protectant activity against corn rust” value ([2]; 400 ppm, table 5) was 100. The pest or weed control at 400 ppm [1] was 100%.

`Cc1c(NC(=O)c2c(C(F)(F)F)nn(C)c2Cl)cccc1OC(C)C` [KC2, reference compound] was tested, and the “protectant activity against corn rust” value ([2]; 0.39 ppm, table 4) was 0, the “protectant activity against corn rust” value ([2]; 1.5625 ppm, table 4) was 65 and the “protectant activity against corn rust” value ([2]; 6.25 ppm, table 4) was 100. For the same molecule, the pest or weed control at 400 ppm [1] was 0%.

`CCCCC(C)Oc1cccc(NC(=O)c2c(C)nn(C)c2Cl)c1C` (stereo not shown) [Compound 4] was tested, and the “protective effect against cucumber anthracnose” value [3] was at least 80% and the pest or weed control at 400 ppm [1] was 100%.

In the case of `Cc1c(NC(=O)c2cn(C)nc2C(F)(F)F)cccc1OC(C)C` [KC1, reference compound], the “protectant activity against corn rust” value ([2]; 6.25 ppm, table 3) is reported as 50, the “protectant activity against corn rust” value ([2]; 400 ppm, table 3) is reported as 100 and the pest or weed control at 400 ppm [1] is reported as 0%.

With `CCCCC(C)Oc1cccc(NC(=O)c2cn(C)nc2C(F)(F)F)c1C` (stereo not shown) [Compound 13] the “protectant activity against corn rust” value ([2]; 6.25 ppm, table 3) was 100, the “protectant activity against corn rust” value ([2]; 400 ppm, table 3) was 100 and the pest or weed control at 400 ppm [1] was 100%.

Source: patent US10315998B2, “Amide compound and the preparation method and use thereof” (SHENYANG SINOCHEM AGROCHEMICALS R&D CO., LTD, priority 2015, dated 2019)
